Where two headings read alike, the source gives them in different places.
Experiments:
Format in all cases: cell-based
[1] = tested on: K562 leukemia cells; experiment: MTT assay, cell growth inhibition of K562 leukemia cells; details: Homo sapiens, K562, 72 h
Method: (§1) All conjugated compounds prepared via click chemistry and listed in Table 1 were evaluated in vitro for their cytotoxic activity against K562 leukemia cells and the colon cancer cell line HCT116. Normal human skin fibroblast cells were chosen as a control and cisplatin served as a reference compound. The cytotoxicity was evaluated using the MTT assay (details are reported in the Materials and Methods section). In all experiments the cell growth inhibition of K562 and HCT116 was determined for each compound at concentrations of 10, 25 and 50 μM after 72 h of treatment and up to 100 μM in the case of fibroblasts.
(§2) Cell growth inhibition assays were carried out using the leukemia cell line K562 and colon carcinoma HCT116. Cell lines were obtained from ATCC (Manassas, VA, USA) and maintained in RPMI 1640, supplemented with 10% fetal bovine serum (FBS), penicillin (100 Units mL^−1), streptomycin (100 μg mL^−1) and glutamine (2 mM) (complete medium); the pH of the medium was 7.2 and the incubation was performed at 37 °C in a 5% CO2 atmosphere. Adherent cells were routinely used at 70% of confluence and passaged every 3 days by treatment with 0.05% Trypsin-EDTA (Lonza, Walkersville, MD, USA). K562 cells were routinely fed every 3 days.
(§3) The antiproliferative activity of the compounds was tested using the 3-(4,5-dimethylthiozol-2-yl)2,5-diphenyltetrazolium bromide solution (MTT) assay. K562 and HCT116 were seeded in triplicate in 96-well trays respectively at the density of 5 × 10^3 and 10^4 in 50 μL of complete medium. Stock solutions (50 mM) of each compound were made in DMSO and diluted in complete medium to give final concentrations of 50, 25 and 10 μM. Untreated cells were placed in every plate as a negative control. The cells were exposed to the compounds, in 100 μL total volume, for 72 h.

[2] = tested on: Normal human skin fibroblast cells; experiment: MTT assay, cytotoxicity on normal fibroblasts (control); details: Homo sapiens, Skin fibroblast, 72 h, MTT, 72 h incubation, up to 100 μM; mean of three independent experiments ± SD; IC50 > 100 means inhibition <10% at 100 μM; read-out: IC50 FIBRO
Method: as §1, §3

[3] = tested on: HCT116 colon carcinoma; experiment: MTT assay, cell growth inhibition of HCT116 colon carcinoma; details: MTT, 72 h incubation, mean of three independent experiments ± SD, IC50 > 50 means inhibition <20% at 50 μM
Method: as §1, §2, §3

[4] = MTT, 72 h incubation, mean of three independent experiments ± SD, IC50 > 50 means inhibition <20% at 50 μM, read-out: IC50 K562

| Compound | IC50 [1, 4] [µM] | IC50 [2] [µM] | IC50 ([3]; Homo sapiens, HCT-116, 72 h) [µM] | IC50 [3] [µM] | IC50 ([1]; extrapolated beyond the highest tested concentration of 50 μM, 72 h, read-out: IC50 K562, extrapolated value) [µM] |
| --- | --- | --- | --- | --- | --- |
| COC(=O)CCC(C)[C@H]1CCC2C3C(CC[C@@]21C)[C@@]1(C)CC[C@@H](n2cc(CCCCC#Cc4nc5c(=O)[nH]c(N)nc5n4[C@@H]4O[C@H](CO)[C@@H](O)[C@H]4O)nn2)CC1C[C@H]3O (stereo partly shown) [G-CDC] | > 50 | > 100 | ≤ 25 | 25.3 ± 3.8 | – |
| CC(CCC(=O)NCCS(=O)(=O)O)[C@H]1CCC2C3C(CC[C@@]21C)[C@@]1(C)CC[C@@H](n2cc(CCCCC#Cc4nc5c(=O)[nH]c(N)nc5n4[C@@H]4O[C@H](CO)[C@@H](O)[C@H]4O)nn2)CC1C[C@@H]3O (stereo partly shown) [G-TUDCA] | > 50 | > 100 | > 50 | – | – |
| COC(=O)CCC(C)[C@H]1CCC2C3C(CC[C@@]21C)[C@@]1(C)CC[C@@H](n2cc(CCCCC#Cc4nc5c(=O)[nH]c(N)nc5n4[C@@H]4O[C@H](CO)[C@@H](O)[C@H]4O)nn2)CC1C[C@@H]3O (stereo partly shown) [G-UDC] | > 50 | > 100 | > 50 | – | – |
| CC(CCn1cc(CCCCC#Cc2nc3c(=O)[nH]c(N)nc3n2[C@@H]2O[C@H](CO)[C@@H](O)[C@H]2O)nn1)[C@H]1CCC2C3C(CC[C@@]21C)[C@@]1(C)CC[C@@H](O)CC1C[C@H]3O (stereo partly shown) [G-nor-CDC] | > 50 | > 100 | > 50 | – | – |
| CC(CCn1cc(CCCCC#Cc2nc3c(=O)[nH]c(N)nc3n2[C@@H]2O[C@H](CO)[C@@H](O)[C@H]2O)nn1)[C@H]1CCC2C3C(CC[C@@]21C)[C@@]1(C)CC[C@@H](O)CC1C[C@@H]3O (stereo partly shown) [G-nor-UDC] | > 50 | > 100 | > 50 | – | – |
| CC(CCC(=O)NCCS(=O)(=O)O)[C@H]1CCC2C3C(CC[C@@]21C)[C@@]1(C)CC[C@@H](n2cc(CCCCC#Cc4nc5c(N)ncnc5n4[C@H]4C[C@H](O)[C@@H](CO)O4)nn2)CC1C[C@@H]3O (stereo partly shown) [dA-TUDCA] | > 50 | > 100 | > 50 | – | – |
| CC(CCn1cc(CCCCC#Cc2nc3c(N)ncnc3n2[C@H]2C[C@H](O)[C@@H](CO)O2)nn1)[C@H]1CCC2C3C(CC[C@@]21C)[C@@]1(C)CC[C@@H](O)CC1C[C@@H]3O (stereo partly shown) [dA-nor-UDC] | > 50 | > 100 | 44.8 ± 3.5 | – | 87.1 |
| COC(=O)CCC(C)[C@H]1CCC2C3C(CC[C@@]21C)[C@@]1(C)CC[C@@H](n2cc(CCCCC#Cc4nc5c(=O)[nH]c(N)nc5n4[C@H]4C[C@H](O)[C@@H](CO)O4)nn2)CC1C[C@H]3O (stereo partly shown) [dG-CDC] | > 50 | > 100 | > 50 | – | – |
| CC(CCC(=O)NCCS(=O)(=O)O)[C@H]1CCC2C3C(CC[C@@]21C)[C@@]1(C)CC[C@@H](n2cc(CCCCC#Cc4nc5c(=O)[nH]c(N)nc5n4[C@H]4C[C@H](O)[C@@H](CO)O4)nn2)CC1C[C@@H]3O (stereo partly shown) [dG-TUDCA] | > 50 | > 100 | > 50 | – | – |
| COC(=O)CCC(C)[C@H]1CCC2C3C(CC[C@@]21C)[C@@]1(C)CC[C@@H](n2cc(CCCCC#Cc4nc5c(=O)[nH]c(N)nc5n4[C@H]4C[C@H](O)[C@@H](CO)O4)nn2)CC1C[C@@H]3O (stereo partly shown) [dG-UDC] | > 50 | > 100 | > 50 | – | – |
| CC(CCn1cc(CCCCC#Cc2nc3c(=O)[nH]c(N)nc3n2[C@H]2C[C@H](O)[C@@H](CO)O2)nn1)[C@H]1CCC2C3C(CC[C@@]21C)[C@@]1(C)CC[C@@H](O)CC1C[C@H]3O (stereo partly shown) [dG-nor-CDC] | > 50 | > 100 | > 50 | – | – |
| CC(CCn1cc(CCCCC#Cc2nc3c(=O)[nH]c(N)nc3n2[C@H]2C[C@H](O)[C@@H](CO)O2)nn1)[C@H]1CCC2C3C(CC[C@@]21C)[C@@]1(C)CC[C@@H](O)CC1C[C@@H]3O (stereo partly shown) [dG-nor-UDC] | > 50 | > 100 | > 50 | – | – |
| COC(=O)CCC(C)[C@H]1CCC2C3C(CC[C@@]21C)[C@@]1(C)CC[C@@H](n2cc(CCCCC#Cc4cn([C@H]5C[C@H](O)[C@@H](CO)O5)c(=O)[nH]c4=O)nn2)CC1C[C@H]3O (stereo partly shown) [dU-CDC] | > 50 | > 100 | > 50 | – | – |
| CC(CCC(=O)NCCS(=O)(=O)O)[C@H]1CCC2C3C(CC[C@@]21C)[C@@]1(C)CC[C@@H](n2cc(CCCCC#Cc4cn([C@H]5C[C@H](O)[C@@H](CO)O5)c(=O)[nH]c4=O)nn2)CC1C[C@@H]3O (stereo partly shown) [dU-TUDCA] | – | > 100 | > 50 | – | – |

Reference: paper PMC6151511, “Rational Design of Nucleoside–Bile Acid Conjugates Incorporating a Triazole Moiety for Anticancer Evaluation and SAR Exploration” (Molecules : A Journal of Synthetic Chemistry and Natural …, 2017)
